Laboratory results published in PubChem BioAssay (NCI).
Several values for one entry are separate records, joined by “and”; a condition that tells them apart may be missing. Equal entries are not always repeated.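 Briefly, cells in 96-well plates were exposed to five compound concentrations for 48 h, and endpoints were estimated by linear interpolation. GI50 is the concentration that inhibits growth by half. TGI: concentration producing complete growth inhibition.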

Experiments:
Assay in all cases: growth of human tumour cells (NCI), 48 h
M14 melanoma = test system: M14 melanoma
K-562 leukemia = test system: K-562 leukemia
NCI-H460 lung = test system: NCI-H460 lung
SF-268 CNS = test system: SF-268 CNS
UACC-62 melanoma = test system: UACC-62 melanoma
HCC-2998 colon = test system: HCC-2998 colon
SK-MEL-5 melanoma = test system: SK-MEL-5 melanoma
HL-60(TB) leukemia = test system: HL-60(TB) leukemia
KM12 colon = test system: KM12 colon
MALME-3M melanoma = test system: MALME-3M melanoma

| SMILES | GI50 (M14 melanoma) | TGI (M14 melanoma) | GI50 (K-562 leukemia) | TGI (K-562 leukemia) | TGI (NCI-H460 lung) | GI50 (SF-268 CNS) | TGI (SF-268 CNS) | GI50 (UACC-62 melanoma) | TGI (UACC-62 melanoma) | GI50 (HCC-2998 colon) | TGI (HCC-2998 colon) | GI50 (SK-MEL-5 melanoma) | GI50 (HL-60(TB) leukemia) | TGI (HL-60(TB) leukemia) | GI50 (KM12 colon) | TGI (KM12 colon) | TGI (MALME-3M melanoma) | TGI (SK-MEL-5 melanoma) | GI50 (NCI-H460 lung) |
| --- | --- | --- | --- | --- | --- | --- | --- | --- | --- | --- | --- | --- | --- | --- | --- | --- | --- | --- | --- |
| COc1cccc(-c2cc(=O)c3cc(N4CCN(C)CC4)ccc3[nH]2)c1 | 2.61 µM | > 100 µM | 492 nM | 6.22 µM | > 100 µM | 4.28 µM | > 100 µM | 1.46 µM | > 100 µM | 1150 nM | 4.71 µM and 3.88 µM | 766 nM | 410 nM | 3.04 µM and 1.23 µM | 1350 nM | 4.81 µM and 45.4 µM | – | – | – |
| C1CN2CCO[SiH](O1)OCC2 | – | – | – | > 100 µM | > 100 µM | – | > 100 µM | – | > 100 µM | – | > 100 µM | – | – | > 100 µM | – | > 100 µM | > 100 µM | > 100 µM | – |
| COc1ccc(/C=C/C(=O)c2c(-c3ccccc3)nn(C)c(=O)c2N2CCCCC2)cc1 | – | 66 µM | – | 63 µM | 49.4 µM | – | 66.1 µM | – | 44.8 µM | – | – | – | – | – | – | – | – | 29.1 µM | – |
| Cc1nc2sccn2c1C(=O)NNC(N)=S | – | – | – | > 100 µM | > 100 µM | – | > 100 µM | – | > 100 µM | – | > 100 µM | – | – | > 100 µM | – | > 100 µM | > 100 µM | > 100 µM | – |
| N#Cc1c(-c2ccccc2)c(-c2ccccc2)cc2c(=O)c3ccc(Cl)cc3[nH]c12 | – | – | – | – | > 100 µM | – | > 100 µM | – | > 100 µM | – | > 100 µM | – | – | > 100 µM | – | – | > 100 µM | – | – |
| CCOC(=O)C1=C(C)N(NC(N)=O)C2(N)N(NC(N)=O)C(C)=C(C(=O)OCC)C12C#N (stereo not drawn) | – | > 100 µM | – | > 100 µM | > 100 µM | – | > 100 µM | – | > 100 µM | – | > 100 µM | – | – | – | – | > 100 µM | > 100 µM | > 100 µM | – |
| N#Cc1ccccc1Sc1ccccc1N | – | – | – | > 100 µM | > 100 µM | – | > 100 µM | – | > 100 µM | – | – | – | – | > 100 µM | – | > 100 µM | > 100 µM | 77.3 µM | – |
| C[n+]1cn(CC(=O)c2ccccc2)c(C(N)=O)c1N | – | > 100 µM | – | – | > 100 µM | – | > 100 µM | – | > 100 µM | – | > 100 µM | – | – | > 100 µM | – | > 100 µM | > 100 µM | > 100 µM | – |
| CCOC(=O)C1C(c2ccc(Br)cc2)N(Cc2ccccc2)C(c2ccc(Br)cc2)C(C(=O)OC)S1(=O)=O (stereo not drawn) | – | > 100 µM | – | > 100 µM | > 100 µM | – | > 100 µM | – | > 100 µM | – | > 100 µM | – | – | > 100 µM | – | > 100 µM | > 100 µM | – | – |
| NC1CCC2(O)c3ccccc3C2C1 (stereo not drawn) | – | > 100 µM | – | > 100 µM | > 100 µM | – | > 100 µM | – | > 100 µM | – | – | – | – | > 100 µM | – | > 100 µM | > 100 µM | > 100 µM | – |
| O=C(Nc1ccc(-n2cc(-c3ccncc3)c(-c3ccc(Cl)c(O)c3)n2)cc1)c1cc(C(F)(F)F)cc(C(F)(F)F)c1 | 6.34 µM | 89.2 µM | 4970 nM | 88 µM | 14 µM | 7.39 µM | 51.6 µM | 14.4 µM | > 100 µM | > 100000 nM | > 100 µM | 1550 nM | > 100000 nM | > 100 µM | 4010 nM | 16.2 µM | – | 3.63 µM | 3.82 µM |
